# Laboratory results published in US20260115331A1, “PET IMAGING OF BACTERIAL INFECTION WITH A PET PROBE” (Mayo Foundation for Medical Education and Research, priority 2022, published 2026).
# Experiment: PET image analysis (SUV) of inflamed tibia in foreign body inflammation rat model
# Type: in vivo, rats
# Details: each time point up to 120 minutes (FIG. 27)
# Method: The PET probe [^68Ga]Ga-H3P2O8 was evaluated in methicillin-resistant S. aureus (MRSA) foreign-body osteomyelitis in the left tibia with a stainless steel Kirschner wire (K-wire) implant in male Wister rats, following a previously established protocol [Ref. 17]. Briefly, a 1 cm incision was made on the medial tibia and the bone exposed. A 1.5 mm hole was drilled, 0.01 mL of arachidonic acid (a sclerosing agent) and 0.05 mL of a suspension containing MRSA DRL-6169 at 10^8 cfu/mL was injected into the bone. A 5 mm threaded stainless-steel K-wire was inserted. The hole was closed with dental gypsum and the site closed. After implantation, the muscle and fascia were closed with 3-0 vicryl using simple interrupted sutures. The skin was closed with sterile wound clips and VetBond. The wound was sprayed with Aluspray and Chew Guard. After 7 days of implantation of wire, the animal was put on iron-deficient diet for 7 days and on the day of imaging, the animals were fasted for 4 hours prior to the injection of the PET probe. [^68Ga]Ga-H3P2O8 (32.81±6.28 MBq, n=18) were injected into the rat model via tail vein injection. The rat model was either a normal rat model or an osteomyelitis foreign body rat model or an inflamed foreign body rat model. PET/CT images were acquired at 15 minutes, 30 minutes, 60 minutes, and 120 minutes post-injection using Siemens Inveon MicroPET/CT Scanner (see FIGS. 17, 18, and Table 2).
# To assess the preferential uptake of novel [^68Ga]Ga-H3P2O8 PET probe in infection as compared to inflammation, the same surgery and imaging was performed but omitted the MRSA. […] The probe [^68Ga]Ga-H3P2O8 was also successfully used to detect thigh infection caused by E coli in a mouse model.
# To further investigate the selectivity of [^68Ga]Ga-H3P2O8 for imaging infection over inflammation, this novel probe was compared to other PET imaging probes, [^68Ga]Ga-Citrate and [^18F]FDG in an inflammation model. In a side-by-side study, all three probes were used to image inflammation (i.e., an inflamed tibia) in an osteomyelitis foreign body rat model.
row,SMILES,difference in mean SUV between the probes in inflamed tibia
1,"OC[C@H]1OC(O)[C@H]([18F])[C@@H](O)[C@@H]1O (some centres unmarked) [[^18F]FDG, [^18F]Fluorodeoxyglucose]",no significant difference
2,O=C([O-])CC(O)(CC(=O)[O-])C(=O)[O-].[Ga+3] [[^68Ga]Ga-Citrate],no significant difference
